Where two headings read alike, the source gives them in different places.
Assays:
[1] = tested on: MHV-3 hepatitis virus; settings: in words; cited from earlier work
[2] = tested on: various Arborvirus, Poxvirus, Nitavirus and Myxovirus strains; settings: in words; cited from earlier work
[3] = tested on: Lymphoblasts cultures; experiment: Maximal dose tolerated by the cultures; type: cell-based; settings: established in previous experiments
Description: (§1) Lymphoblasts cultures in stationary tubes (inoculum 200,000 cells/ml) at the 4th day from implant were used. A lactalbumin medium enriched with 20% decomplemented calf serum medium was used as culture medium (TC) and, as maintaining medium (TM), after infection of the cultures, a 199 supplemented with 1% bovine crystallized albumin and 2% calf serum was used. All media were added with penicillin (100 U.I/ml) and streptomycin (100 μg/ml). Viral dilutions were carried out with 199 only.
The dose used for each drug is the maximal dose tolerated by the cultures, established in previous experiments.

[4] = tested on: A-PR8 Influenza virus; settings: in words; cited from earlier work
[5] = tested on: HIV virus; experiment: Viral growth curve in infected lymphoblasts cultures in the presence of the tested compounds; type: cell-based
Description: as §1
Xenalamine (p-α-ethoxy-p-phenyl-phenacylaminobenzoic acid), xenalic acid (p-(4-biphenyl-glyoxylidene)-amino-benzoic acid) at a 12.5 μg dose; xenaldial (4,4′-bis-diphenylglyoxal hydrate) at a 25 μg dose.
The following procedure was used to evaluate the viral growth curve in the presence of the tested compounds: cultures were infected with 1 ml of viral fluid containing a cytopathogenic dose to obtain an about 1:1 LD50/cell ratio. 1 Hour after the infection at +36° C. and repeated washings with Hanks balanced saline solution, the viral fluid was replaced with TM for the control groups and with TM+drug for the tested cultures.
At time intervals, aliquots from three cultures were taken, washed with Hanks solution, then added with 1 ml of TM and frozen at −30° C.
At the end of the experiment, the culture fluids were thawed and refrozen twice, pooling each aliquot, then titred simultaneously with the corresponding fluids separated before freezing.

[6] = tested on: HTLV IIIB; experiment: HTLV IIIB-inhibitory activity on cultures of lymphocytes, % virus inhibition by PCR; type: cell-based
Description: HTLV IIIB-inhibitory activity of Xenaldial was tested on cultures of lymphocytes. The % virus inhibition was determined by means of PCR, according to the following procedure:
DNA was extracted from 5×10^4 lymphocytes using 400 μl lysate and incubating at 56° C./60′ and at 92° C./15′. Afterwards the mixture was cooled at room temperature and kept at 4° C.
The oligonucleotide SK19 (41 bases—corresponding to the internal sequence of the amplified pro-viral DNA) was synthesised, dissolved in water at a final concentration of 20 μm and 5′-labelled with polynucleotide kinase and ^32P-ATP.
Reagent preparation: Nucleotides: 125 μl of each nucleotide 10 mM were diluted to 1 ml with H2O (final concentration 1.25 mM); buffer 10×: KCl 2M—250 μl, TrisCl 1M pH8.3—100 μl, MgCl2 1M—20 μl, gelatine—10 mg, diluted to 1 ml with H2O;
Oligonucleotide pair: oligonucleotides SK38 and 39 were synthesised, purified and dissolved in a concentration of 200-300 μM.
Reaction: mixing buffer 10×, nucleotides (1.25 mM), oligonucleotide primer SK38 and SK39 15 μM, lysate, Taq polymerase 5 U/μl; denaturation 90° C./60′, annealing 55° C./30′, polymerisation 72° C./30′; repeat the cycle 30 times.

[7] = tested on: HIV virus; type: cell-based; settings: for Neutralization Index: 200 μg/ml, 37°-1 h; for Viral titre after incubation at 37°-1 h with 200 μg/ml of drug: mean of 3 experiments

## O.O.O=CC(=O)c1ccc(-c2ccc(C(=O)C=O)cc2)cc1 [xenaldial, 4-4′-bis-biphenylglyoxal dihydrate]
[1]
  antiviral activity: active
[2]
  antiviral activity: active
[3]
  maximal dose tolerated by the cultures: 25 µg
[4]
  antiviral activity: active
[5]; drug added 1 h after infection, xenalamine 12.5 μg/ml, xenaldial 25 μg/ml
  delay in the appearance of the virus in fluids compared with controls: 24 h
[5]; xenaldial 25 μg/ml added 1 h and again 48 hours after the infection
  reduction of the intra- and extracellular virus amount compared with controls, time up to which observed: up to 120 hours
[6]; 0.001 μM
  Inhibition %: 44%
[6]; 0.01 μM
  Inhibition %: 30%
[6]; 0.1 μM
  Inhibition %: 12%
[6]; 1 μM
  Inhibition %: 16%
[6]; 5 μM
  Inhibition %: 42%
[6]; 20 μM
  Inhibition %: 26%
[6]; 60 μM
  Inhibition %: 59%
[6]; 100 μM
  Inhibition %: 77%
[7]; high viral titre
  reduction of the pathogenic activity of the virus upon exposure (% of the logarithmic values compared with controls): 8.3%
[7]; high viral titre (starting stock 6.5)
  Neutralization Index: 0.5
[7]; high viral titre: starting stock titre 6.5, control after incubation 6.2
  Viral titre after incubation at 37°-1 h with 200 μg/ml of drug: 6.0
[7]; in words
  virucidal activity (on extracellular viral particles): marked virucidal activity
[7]; low viral titre
  reduction of the pathogenic activity of the virus upon exposure (% of the logarithmic values compared with controls): 42.8%
[7]; low viral titre (starting stock 4.5)
  Neutralization Index: 1.5
[7]; low viral titre: starting stock titre 4.5, control after incubation 3.5
  Viral titre after incubation at 37°-1 h with 200 μg/ml of drug: 2.0

## O=C(O)c1ccc(N=CC(=O)c2ccc(-c3ccccc3)cc2)cc1 [xenalic acid, p-(4-biphenyl-glyoxylidene)-amino-benzoic acid]
[3]
  maximal dose tolerated by the cultures: 12.5 µg
[5]; same experimental conditions, compared with xenaldial
  inhibitory effect on intracellular viral replication: lower than that of xenaldial
[7]
  virucidal activity (on extracellular viral particles): marked virucidal activity
